One assay relates to Strain MNH06163. The assay can be described thus: antibiotic susceptibility testing, disk diffusion test. It is filed as cell-based, Christensenella sp. Conditions: for MNH06163 Inhibition Zone Diameter: disk diffusion, strain MNH06163; for susceptibility of strain MNH06163 to the antibiotic: result in words. The method, then: (§1) Antibiotic susceptibility testing was performed separately for each strain using the disk diffusion test.
(In agar diffusion tests the substance spreads into inoculated agar from a disc or well.)

The next assay relates to Strain MNH04863. The description is as above. The conditions noted are these: for MNH04863 Inhibition Zone Diameter: disk diffusion, strain MNH04863; for susceptibility of strain MNH04863 to the antibiotic: result in words. It is filed as cell-based, Christensenella sp. The method, then:
as §1

In a further assay the test system is Strain MNH05119. The description is as above. It counts as cell-based, Christensenella sp. Conditions: for MNH05119 Inhibition Zone Diameter: disk diffusion, strain MNH05119; for susceptibility of strain MNH05119 to the antibiotic: result in words. The procedure: as §1
The test system of assay [1] is type II diabetic mice (db/db). In words: combination of MNH05119 and metformin in type II diabetic model mice (Example 7). It is filed as in vivo, BKS-Leprem2Cd479/Gpt (db/db) mice. Conditions: 28 days, MNH05119 2×10^10 CFU/mouse twice daily, metformin 250 mg/kg once daily, oral gavage.
Excerpt: (1) Experimental animals: The experimental mice were BKS-Leprem2Cd479/Gpt (db/db) mice, aged 5-6 weeks, 32 mice in total, purchased from GuangDong GemPharmatech Co., Ltd.
The activated strain was inoculated in MM01 liquid medium and cultured anaerobically to obtain a sufficient amount of cultures. These cultures were centrifuged, concentrated and resuspended in a solvent to obtain the subjects with purity and viable bacteria counts (1×10^11 CFU/mL) that satisfy the requirements of the animal experiments.
3) Negative control (HFD-control group): PBS-Cys was used as a negative control.
5) Experimental procedure: 5 to 6-week-old of 32 BKS-Leprem2Cd479/Gpt (db/db) male
mice were randomly grouped according to their body weights after quarantine, with 8 mice/group divided into 4 groups. […] All data were expressed as mean±SD, graphed and statistically analyzed using GraphPad Prism 8.0.2 software. […]
6) Oral Glucose Tolerance Test (OGTT): On the 27th day (Day27) of administration, OGTT was determined after 12 h of fasting (e.g., fasting from 20:30:00 μm to 08:30:00 μm the following day). The fasting body weights of the mice were measured and glucose was administered by gavage at a dose of 2 g/kg (glucose g/mouse fasting body weight kg). Fasting blood glucose as well as blood glucose values at 15 min, 30 min, 60 min, 90 min and 120 min post-glucose administration were measured.

Eleven compounds from patent publication US20260008995A1, “ISOLATED […], COMPOSITIONS COMPRISING THE SAME, AND USES THEREOF” (MOON (GUANGZHOU) BIOTECH CO., LTD., priority 2023, published 2026) can be followed below.

As to `CC1(C)S[C@@H]2[C@H](NC(=O)[C@H](N)c3ccccc3)C(=O)N2[C@H]1C(=O)O` [Ampicillin (AMP), Ampicillin], in the assay with Strain MNH06163, the “MNH06163 Inhibition Zone Diameter” value is 0 mm and the “susceptibility of strain MNH06163 to the antibiotic” value (“susceptibility of strain MNH06163” for short) is reported as “resistance”. Besides, in the assay with Strain MNH04863, the “MNH04863 Inhibition Zone Diameter” value is 0 mm and the “susceptibility of strain MNH04863 to the antibiotic” value (“susceptibility of strain MNH04863” below) is “resistance”. For the same compound, in the assay on Strain MNH05119, the “MNH05119 Inhibition Zone Diameter” value amounted to 0 mm and the “susceptibility of strain MNH05119 to the antibiotic” value (shortened to “susceptibility of strain MNH05119”) is “resistance”.

For the compound `CO/N=C(\C(=O)N[C@@H]1C(=O)N2C(C(=O)O)=C(CSc3nc(=O)c(=O)[nH]n3C)CS[C@H]12)c1csc(N)n1` [Ceftriaxone (CTR), Ceftriaxone], in the assay on Strain MNH06163, the “MNH06163 Inhibition Zone Diameter” value is 0 mm and the “susceptibility of strain MNH06163” value was “resistance”. In addition, in the assay on Strain MNH04863, the “MNH04863 Inhibition Zone Diameter” value came to 37.32 mm and the “susceptibility of strain MNH04863” value was “sensitive”. Moreover, in the assay with Strain MNH05119, the “MNH05119 Inhibition Zone Diameter” value was found to be 0 mm and the “susceptibility of strain MNH05119” value was “resistance”.

For the compound `O=C(N[C@H](CO)[C@H](O)c1ccc([N+](=O)[O-])cc1)C(Cl)Cl` [Chloramphenicol (CLM), Chloramphenicol], in the assay with Strain MNH06163, the “MNH06163 Inhibition Zone Diameter” value is on record as 21.59 mm and the “susceptibility of strain MNH06163” value is “sensitive”. For the same compound, in the assay with Strain MNH04863, the “MNH04863 Inhibition Zone Diameter” value came out at 38.88 mm and the “susceptibility of strain MNH04863” value is “sensitive”. In the assay with Strain MNH05119, the “MNH05119 Inhibition Zone Diameter” value is 32.49 mm and the “susceptibility of strain MNH05119” value is reported as “sensitive”.

As for `O=C(O)c1cn(C2CC2)c2cc(N3CCNCC3)c(F)cc2c1=O` [Ciprofloxacin (CFX), Ciprofloxacin], in the assay on Strain MNH06163, the “MNH06163 Inhibition Zone Diameter” value is 0 mm and the “susceptibility of strain MNH06163” value is listed as “resistance”. Moreover, in the assay on Strain MNH04863, the “MNH04863 Inhibition Zone Diameter” value is 0 mm and the “susceptibility of strain MNH04863” value is “resistance”. Further, in the assay on Strain MNH05119, the “MNH05119 Inhibition Zone Diameter” value worked out at 0 mm and the “susceptibility of strain MNH05119” value is listed as “resistance”.

With `CC[C@H]1OC(=O)[C@H](C)[C@@H](O[C@H]2C[C@@](C)(OC)[C@@H](O)[C@H](C)O2)[C@H](C)[C@@H](O[C@@H]2O[C@H](C)C[C@H](N(C)C)[C@H]2O)[C@](C)(O)C[C@@H](C)C(=O)[C@H](C)[C@@H](O)[C@]1(C)O` [Erythromycin (ERM), Erythromycin], in the assay with Strain MNH06163, the “MNH06163 Inhibition Zone Diameter” value is reported as 8.72 mm and the “susceptibility of strain MNH06163” value is listed as “sensitive”. In the assay with Strain MNH04863, the “MNH04863 Inhibition Zone Diameter” value worked out at 16.82 mm and the “susceptibility of strain MNH04863” value is “sensitive”. Besides, in the assay on Strain MNH05119, the “MNH05119 Inhibition Zone Diameter” value worked out at 31.65 mm and the “susceptibility of strain MNH05119” value was “sensitive”.

For `CCC[C@@H]1C[C@@H](C(=O)N[C@@H]([C@H]2O[C@H](SC)[C@H](O)[C@@H](O)[C@H]2O)[C@@H](C)O)N(C)C1` [Lincomycin (LIN), Lincomycin], in the assay on Strain MNH06163, the “MNH06163 Inhibition Zone Diameter” value is listed as 0 mm and the “susceptibility of strain MNH06163” value is reported as “resistance”. In the assay with Strain MNH04863, the “MNH04863 Inhibition Zone Diameter” value turned out to be 29.86 mm and the “susceptibility of strain MNH04863” value is “sensitive”. In the assay on Strain MNH05119, the “MNH05119 Inhibition Zone Diameter” value worked out at 0 mm and the “susceptibility of strain MNH05119” value is “resistance”.

As to `CN(C)[C@@H]1C(O)=C(C(N)=O)C(=O)[C@@]2(O)C(O)=C3C(=O)c4c(O)cccc4[C@@](C)(O)[C@H]3C[C@@H]12` [Tetracycline (TET), Tetracycline], in the assay on Strain MNH06163, the “MNH06163 Inhibition Zone Diameter” value is recorded as 18.14 mm. Further, the “MNH04863 Inhibition Zone Diameter” value in the assay on Strain MNH04863 worked out at 46.11 mm. In the assay with Strain MNH05119, the “MNH05119 Inhibition Zone Diameter” value came out at 24.12 mm.

For `CN(C)C(=N)N=C(N)N` [metformin], in assay [1], the “reduction of fasting blood glucose value compared to negative control group” value is recorded as 50%.

In the case of “Compound sulfamethoxazole [sulfamethoxazole (T/S)]”, in the assay with Strain MNH06163, the “MNH06163 Inhibition Zone Diameter” value is reported as 0 mm and the “susceptibility of strain MNH06163” value was “resistance”. In addition, in the assay on Strain MNH04863, the “MNH04863 Inhibition Zone Diameter” value worked out at 0 mm and the “susceptibility of strain MNH04863” value is “resistance”. Further, in the assay on Strain MNH05119, the “MNH05119 Inhibition Zone Diameter” value was 0 mm and the “susceptibility of strain MNH05119” value is “resistance”.

Regarding Gentamycin [Gentamycin (GEN)], in the assay with Strain MNH06163, the “MNH06163 Inhibition Zone Diameter” value was 0 mm and the “susceptibility of strain MNH06163” value is on record as “resistance”. In the assay with Strain MNH04863, the “MNH04863 Inhibition Zone Diameter” value came to 0 mm and the “susceptibility of strain MNH04863” value was “resistance”. In the assay on Strain MNH05119, the “MNH05119 Inhibition Zone Diameter” value worked out at 0 mm and the “susceptibility of strain MNH05119” value is “resistance”.

On to Penicillin [Penicillin (PEN)], for which, in the assay on Strain MNH06163, the “MNH06163 Inhibition Zone Diameter” value is 0 mm and the “susceptibility of strain MNH06163” value is listed as “resistance”. In the assay with Strain MNH04863, the “MNH04863 Inhibition Zone Diameter” value is 43.06 mm and the “susceptibility of strain MNH04863” value is “sensitive”. Moreover, in the assay with Strain MNH05119, the “MNH05119 Inhibition Zone Diameter” value is recorded as 0 mm and the “susceptibility of strain MNH05119” value is listed as “resistance”.
